Measured values taken from ChEMBL document CHEMBL1255312, “Activity of daptomycin against Listeria monocytogenes isolates from cerebrospinal fluid” (Antimicrob Agents Chemother, 2008).
≈ marks a conversion by molar mass, not a printed value.

How the values were obtained:
Listeria monocytogenes [1] = assay: Antimicrobial activity against Listeria monocytogenes isolated from cerebrospinal fluid of meningitis patient by Etest method; format: functional
Listeria monocytogenes [2] = assay: Antimicrobial activity against Listeria monocytogenes isolated from cerebrospinal fluid of meningitis patient by broth dilution method; format: functional
Streptococcus pneumoniae = assay: Antimicrobial activity against penicillin-, quinolone-resistant Streptococcus pneumoniae WB4 infected in experimental rabbit meningitis model; format: functional
Staphylococcus aureus [3] = assay: Antimicrobial activity against methicillin-susceptible Staphylococcus aureus infected in experimental rabbit meningitis model; format: functional
Homo sapiens = assay: Plasma concentration in healthy human at 4 mg/kg, iv QD; format: ADME, organism-based; design: dose 4 mg/kg, route intravenous; conditions: in vivo
Staphylococcus aureus [4] = assay: Antimicrobial activity against Staphylococcus aureus infected in hydrocephalic rabbit administered intraventricularly as single dose; conditions: Cardiac ventricle

CCCCCCCCCC(=O)N[C@@H](Cc1c[nH]c2ccccc12)C(=O)N[C@H](CC(N)=O)C(=O)N[C@@H](CC(=O)O)C(=O)N[C@@H]1C(=O)NCC(=O)N[C@@H](CCCN)C(=O)N[C@@H](CC(=O)O)C(=O)N[C@H](C)C(=O)N[C@@H](CC(=O)O)C(=O)NCC(=O)N[C@H](CO)C(=O)N[C@@H]([C@H](C)CC(=O)O)C(=O)N[C@@H](CC(=O)c2ccccc2N)C(=O)O[C@@H]1C
MIC90 (Listeria monocytogenes [1]): 4 µg/mL (≈ 2.47 µM)
MIC95 (Listeria monocytogenes [1]): 1 µg/mL (≈ 0.617 µM)
MIC90 (Listeria monocytogenes [2]): 4 µg/mL (≈ 2.47 µM)
MIC (Streptococcus pneumoniae): 0.06 µg/mL (≈ 0.037 µM)
MIC (Staphylococcus aureus [3]): 1 µg/mL (≈ 0.617 µM)
Cp (Homo sapiens): 60 µg/mL
MIC (Staphylococcus aureus [4]): 0.25 µg/mL (≈ 0.154 µM)
